Columns and labels:
Experiment in all cases: Test E preemergence herbicide test
Parameters in all cases: key: 0 = no effect, 100 = complete control
[1] = tested on: wild poinsettia; type: in vivo, Euphorbia heterophylla
Summary of the method: (§1)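 Planted in silt loam; preemergence spray, non-phytotoxic solvent/surfactant formulation; greenhouse 21 d; visual score 0–100 vs controls.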

[2] = tested on: goosegrass; type: in vivo, Eleusine indica
Summary of the method: as §1

[3] = tested on: sandbur; type: in vivo, Cenchrus echinatus
Summary of the method: as §1

[4] = tested on: morningglory; type: in vivo, Ipomoea coccinea
Summary of the method: as §1

SMILES: O=C1NCC(c2cccc(Br)c2)C1C(=O)Nc1ccccc1F (stereo not drawn) [Compound 66]
- Plant response rating, Poinsettia, Wild ([1]; 16 g ai/ha): 0
- Plant response rating, Poinsettia, Wild ([1]; 31 g ai/ha): 0
- Plant response rating, Poinsettia, Wild ([1]; 62 g ai/ha): 0
- Plant response rating, Poinsettia, Wild ([1]; 125 g ai/ha): 0
- Plant response rating, Poinsettia, Wild ([1]; 250 g ai/ha): 20
- Plant response rating, Goosegrass ([2]; 16 g ai/ha): 0
- Plant response rating, Goosegrass ([2]; 31 g ai/ha): 0
- Plant response rating, Goosegrass ([2]; 62 g ai/ha): 0
- Plant response rating, Goosegrass ([2]; 125 g ai/ha): 0
- Plant response rating, Goosegrass ([2]; 250 g ai/ha): 0
- Plant response rating, Sandbur ([3]; 16 g ai/ha): 0
- Plant response rating, Sandbur ([3]; 31 g ai/ha): 0
- Plant response rating, Sandbur ([3]; 62 g ai/ha): 0
- Plant response rating, Sandbur ([3]; 125 g ai/ha): 0
- Plant response rating, Sandbur ([3]; 250 g ai/ha): 35
- Plant response rating, Morningglory ([4]; 16 g ai/ha): 0
- Plant response rating, Morningglory ([4]; 31 g ai/ha): 0
- Plant response rating, Morningglory ([4]; 62 g ai/ha): 0
- Plant response rating, Morningglory ([4]; 125 g ai/ha): 0
- Plant response rating, Morningglory ([4]; 250 g ai/ha): 0

SMILES: O=C1NCC(c2ccc(C(F)(F)F)cc2)C1C(=O)Nc1ccc(F)c(F)c1F (stereo not drawn) [Compound 232]
- Plant response rating, Poinsettia, Wild ([1]; 31 g ai/ha): 0
- Plant response rating, Poinsettia, Wild ([1]; 62 g ai/ha): 0
- Plant response rating, Poinsettia, Wild ([1]; 125 g ai/ha): 35
- Plant response rating, Poinsettia, Wild ([1]; 250 g ai/ha): 40
- Plant response rating, Goosegrass ([2]; 31 g ai/ha): 35
- Plant response rating, Goosegrass ([2]; 62 g ai/ha): 80
- Plant response rating, Goosegrass ([2]; 125 g ai/ha): 85
- Plant response rating, Goosegrass ([2]; 250 g ai/ha): 95
- Plant response rating, Sandbur ([3]; 31 g ai/ha): 35
- Plant response rating, Sandbur ([3]; 62 g ai/ha): 65
- Plant response rating, Sandbur ([3]; 125 g ai/ha): 90
- Plant response rating, Sandbur ([3]; 250 g ai/ha): 90
- Plant response rating, Morningglory ([4]; 31 g ai/ha): 0
- Plant response rating, Morningglory ([4]; 62 g ai/ha): 0
- Plant response rating, Morningglory ([4]; 125 g ai/ha): 0
- Plant response rating, Morningglory ([4]; 250 g ai/ha): 35

From US10294202B2, “Pyrrolidinones as herbicides” (FMC Corporation, priority 2013, dated 2019)
